In PubChem BioAssay (NCI):
Where “and” joins values, the source holds several entries; their conditions need not be identical. Equal entries are not always repeated.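 1) Cells in 96-well plates. 2) Compound, 48 h, 5 concentrations. 3) Linear interpolation between surrounding doses. 4) Unreached endpoint = highest concentration. GI50 marks 50% less growth. The concentration for full growth arrest is given as TGI.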

What was measured:
Test in all cases: NCI tumour cell line growth inhibition, 48 h
RXF-631 renal = system: RXF-631 renal
XF 498 CNS = system: XF 498 CNS
HOP-18 NSCLC = system: HOP-18 NSCLC
DMS 114 small cell lung = system: DMS 114 small cell lung
KM20L2 colon = system: KM20L2 colon
T-47D breast = system: T-47D breast
MDA-MB-435 = system: MDA-MB-435
P388/ADR leukemia = system: P388/ADR leukemia
MDA-N = system: MDA-N
P388 leukemia = system: P388 leukemia
SN12K1 renal = system: SN12K1 renal
MDA-MB-231 breast = system: MDA-MB-231 breast

| Compound | TGI (RXF-631 renal) [µM] | TGI (XF 498 CNS) [µM] | TGI (HOP-18 NSCLC) | TGI (DMS 114 small cell lung) | TGI (KM20L2 colon) | also measured |
| --- | --- | --- | --- | --- | --- | --- |
| CN1NC(c2ccccc2)=C(C#N)C(=O)CC1c1ccccc1Cl (stereo unspecified) | > 100 | > 100 | > 100 µM | > 100 µM |  |  |
| O=c1c2cc(-c3ccccc3)sc2nc2sc(-c3ccccc3)nn12 | > 100 | > 100 | > 100 µM | > 100 µM | > 100 µM |  |
| Cc1cc(Cl)ccc1N1C(=O)C(=O)C(c2nc3ccccc3s2)/C(=N\NC(=O)c2ccccc2O)C1=O (stereo unspecified) | > 100 |  | > 100 µM | > 100 µM | > 100 µM |  |
| O=S(O)CCCCSSCCCCS(=O)(O)=S | > 100 | 33.2 | > 100 µM | > 100 µM | > 100 µM |  |
| CC[O+]=c1cccc2ssnc1-2 | > 100 | 66.9 | > 100 µM |  | > 100 µM |  |
| Cc1ccc(S(=O)(=O)NC(C)C(=O)O)cc1 (stereo unspecified) | > 100 | > 100 | > 100 µM |  | > 100 µM |  |
| COC(=O)c1c(C(=O)OC)c(C(=O)OC)c(C(=O)OC)c1C(=O)OC | > 100 |  | > 100 µM | > 100 µM | > 100 µM |  |
| CCC1N2CCCCC2[C@@H]2c3[nH]c4ccccc4c3CCN12 (stereo partly specified) | > 100 | > 100 | > 100 µM | > 100 µM | > 100 µM |  |
| [O-]c1c(-c2ccccc2)[se]c(-c2ccccc2)[n+]1-c1ccccc1 | 29.9 |  | 25.6 µM | 18.7 µM |  |  |
| N#CC(C(=N/NC(N)=S)/C(=N\NC(N)=S)C(C#N)c1ccccc1)c1ccccc1 (stereo unspecified) | > 10 | > 10 | > 10 µM | > 10 µM | > 10 µM |  |
| C=CCCC12CCCC(=O)C1Sc1ccc3ccccc3c12 (stereo unspecified) | 34 |  | 61.2 µM |  |  |  |
| CCN(CC)CCNc1ccc(CO)c2sc3ccccc3c(=O)c12 |  | 24.5 | 29.7 µM and 24.6 µM | 27.5 µM and 23 µM | 18.4 µM and 22.6 µM | GI50 (T-47D breast): 4.84 µM; TGI (T-47D breast): 17.8 µM and 28.6 µM; GI50 (MDA-MB-435): 2.49 µM; TGI (MDA-MB-435): 7.56 µM and 11.3 µM; TGI (P388/ADR leukemia): 31.3 µM; TGI (MDA-N): 16.6 µM; TGI (P388 leukemia): 8.68 µM; TGI (SN12K1 renal): 17.4 µM; GI50 (MDA-MB-231 breast): 4.26 µM and 4.92 µM; TGI (MDA-MB-231 breast): 21.7 µM and 20.6 µM; GI50 (HOP-18 NSCLC): 3.02 µM and 11.4 µM |
| CC(C)[C@H](COC(C)(C)C)N=CN1CSc2ccccc21 | > 100 | 47.8 |  | 62.1 µM | > 100 µM |  |
| CC(=O)N1C(=O)C(=O)c2cc(Cl)ccc21 | > 100 | 65.2 | > 100 µM | > 100 µM |  |  |
| O=C1c2ccccc2C(=O)N1C/C=N/NS(=O)(=O)c1ccc(Cl)cc1 | > 100 | > 100 |  | > 100 µM | > 100 µM |  |
| CC(=O)C1C(=O)C(=O)N(c2ccc(Cl)cc2C)C1=O (stereo unspecified) | > 100 |  | > 100 µM | > 100 µM | > 100 µM |  |
| CCCCCCCCCCSS(=O)(=O)c1ccc(C)cc1 | 17.2 | 26 | 43.1 µM | 30.4 µM | 33.3 µM |  |
| CCOc1ccccc1N=C(NC(=O)CC)SC | > 100 |  | > 10 µM | > 10 µM | > 100 µM | GI50 (RXF-631 renal): > 100 µM; GI50 (KM20L2 colon): > 100 µM |
| CC(C)c1cccc2sc(NC(=O)C(=O)CC(=O)c3ccc(F)cc3)nc12 | > 100 | > 100 |  | > 100 µM | > 100 µM |  |
